Reference: the supplement of paper PMC10307832

Key:
Assay in all cases: relative viability (nuclei count vs DMSO), 5 days (fraction); higher = more cells survive
[1] = compound: C1CSC2=C(C(=O)N1)SC3=C2C=C(C=C3)O [kb NB 142-70] + O=C(CCCCCCC(=O)Nc1ccccc1)NO [Vorinostat] (partner 1 µM)
Procedure, shortened: (§1)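 Relative viability equals treated-well nuclei counts divided by vehicle-well nuclei counts. Counts came from 4× images of lung cancer cell lines grown in 1536-well plates for 5 days after pin-tool dosing on the day after seeding. Dosing used one drug alone or a fixed anchor-drug dose plus five library-drug doses (not always all listed) in √10 steps, and values are medians of duplicate plates.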

[2] = compound: NCC(=O)Nc1ccc(-n2nc(C(F)(F)F)cc2-c2ccc3c(ccc4ccccc43)c2)cc1 + CCNC(=O)c1noc(-c2cc(C(C)C)c(O)cc2O)c1-c1ccc(CN2CCOCC2)cc1 [Luminespib] (partner 0.01 µM)
Procedure, shortened: as §1

[3] = compound: NCC(=O)Nc1ccc(-n2nc(C(F)(F)F)cc2-c2ccc3c(ccc4ccccc43)c2)cc1 + C[C@]1(O)C[C@@H](c2nc(-c3ccc4ccc(-c5ccccc5)nc4c3)c3c(N)nccn32)C1 [Linsitinib] (partner 1 µM)
Procedure, shortened: as §1

[4] = compound: NCC(=O)Nc1ccc(-n2nc(C(F)(F)F)cc2-c2ccc3c(ccc4ccccc43)c2)cc1 + O=C(c1cc(Cc2n[nH]c(=O)c3ccccc23)ccc1F)N1CCN(C(=O)C2CC2)CC1 [Olaparib] (partner 8 µM)
Procedure, shortened: as §1

Cell Line | relative viability ([1]; first compound 0.1 µM) | relative viability ([1]; first compound 1 µM) | relative viability ([1]; first compound 3.162 µM) | relative viability ([2]; first compound 0.02 µM) | relative viability ([2]; first compound 0.06325 µM) | relative viability ([2]; first compound 0.2 µM) | relative viability ([2]; first compound 0.6325 µM) | relative viability ([2]; first compound 2 µM) | relative viability ([3]; first compound 0.02 µM) | relative viability ([3]; first compound 0.06325 µM) | relative viability ([3]; first compound 0.2 µM) | relative viability ([3]; first compound 0.6325 µM) | relative viability ([3]; first compound 2 µM) | relative viability ([4]; first compound 0.02 µM) | relative viability ([4]; first compound 0.06325 µM) | relative viability ([4]; first compound 0.2 µM) | relative viability ([4]; first compound 0.6325 µM) | relative viability ([4]; first compound 2 µM)
HARA | 0.449 | 0.438 | 0.563 | 0.773 | 1.03 | 0.735 | 0.484 | 0.818 | 0.935 | 1.01 | 1.18 | 0.965 | 0.935 | 1.07 | 1.25 | 0.762 | 0.982 | 1.06
NCI-H2087 | 0.506 | 0.687 | 0.423 | 0.151 | 0.19 | 0.214 | 0.138 | 0.196 | 0.867 | 1.02 | 1.03 | 1.1 | 0.988 | 0.583 | 0.525 | 0.592 | 0.67 | 0.634
NCI-H1648 | 0.356 | 0.345 | 0.423 | – | – | – | – | – | – | – | – | – | – | 0.577 | 1.03 | 1.02 | 0.649 | 0.56
NCI-H1792 | – | – | – | 0.337 | 0.583 | 0.552 | 0.585 | 0.484 | 0.507 | 0.647 | 0.549 | 0.625 | 0.552 | 0.597 | 0.518 | 0.404 | 0.385 | 0.511
ChaGo-K-1 | 0.815 | 0.813 | 0.7 | 0.614 | 0.501 | 0.54 | 0.548 | 0.567 | – | – | – | – | – | 0.443 | 0.488 | 0.388 | 0.443 | 0.405
A549 | – | – | – | – | – | – | – | – | 0.626 | 0.599 | 0.608 | 0.579 | 0.614 | 0.294 | 0.291 | 0.339 | 0.29 | 0.239
NCI-H1563 | – | – | – | 0.557 | 0.523 | 0.588 | 0.526 | 0.554 | 1.33 | 1.22 | 1.2 | 1.19 | 1.28 | – | – | – | – | –
NCI-H522 | 0.983 | 0.835 | 0.794 | 0.97 | 1.05 | 1.24 | 1.19 | 1.37 | – | – | – | – | – | 0.666 | 0.777 | 0.721 | 0.685 | 0.656
HCC-78 | 0.407 | 0.602 | 0.483 | – | – | – | – | – | 0.572 | 0.563 | 0.498 | 0.49 | 0.541 | 0.9 | 0.837 | 1.02 | 0.868 | 0.814
IA-LM | 0.957 | 0.994 | 1.16 | – | – | – | – | – | 0.802 | 0.39 | 0.558 | 0.706 | 0.539 | 0.986 | 0.722 | 0.951 | 0.896 | 1
NCI-H1703 | – | – | – | – | – | – | – | – | 0.718 | 0.781 | 0.52 | 0.691 | 0.591 | 0.498 | 0.356 | 0.644 | 0.367 | 0.368
SW 900 | 0.597 | 0.593 | 0.388 | – | 0.187 | 0.188 | 0.209 | 0.169 | – | – | – | – | – | 0.86 | 0.881 | 0.88 | 0.693 | 0.994
